The values that follow come from US9896659B2, “Methods, kits, and compositions for stem cell self-renewal” (STOWERS INSTITUTE FOR MEDICAL RESEARCH, priority 2011, dated 2018).

Assay [1] has as its system LSK Flk2^− cells. The experiment in a line: Ex vivo culture of sorted LSK Flk2^− cells with GSK-3β and PTEN inhibitors, expansion by FACS. It counts as cell-based, mouse. The method, then:
LSK or LSK Flk2^− cells were sorted into 96-well U-bottom tissue culture plates at 100 cells/well with 200 μl media/well. Cells were incubated at 37° C., 5% O2, 5% CO2 (balance N2) for the indicated number of days. One-half total volume of media (see Table 1, below for the base media) was carefully pipetted from the top and replaced with fresh media every other day.
One hundred LSK Flk2^− cells were sorted from wild-type (C57Bl/6) mice and cultured in (1) media, (2) media+1 μM CHIR99021 (a GSK-3β inhibitor, a gift from Dr. Sheng Ding), (3) media+200 nM Dipotassium Bis-peroxo(picolinato)oxovanadate (BpV(pic), a PTEN inhibitor, available from Calbiochem, Cat. No. 203705), (4) media+1 μM CHIR99021+200 nM BpV(pic), (5) media+200 nM Shikonin (also a PTEN inhibitor, available from Calbiochem, Cat. No. 565850), and (6) media+200 nM Shikonin+1 μM CHIR99021. (FIGS. 3B-C). Cells were cultured as described above. Cells were examined at 17 days of culture (FIG. 3B, original magnification 100×) and 23 days (FIG. 3C, original magnification 40×).
LSK Flk2^− cells at 28 days culture in the indicated media conditions were examined (FIG. 3D, original magnification 200×).
FACS analysis of 28 day LSK Flk2^− cells cultured in media+BpV(pic)+CHIR99021 (FIG. 3E) was performed. Cells were pre-gated on live, lineage negative cells.
Fold expansion of LSK Flk2^− cells after 28 days culture in (1) media, (2) media+BpV(pic), (3) media+CHIR99021, and (4) media+CHIR99021+BpV(pic) were analyzed.
Cells cultured for 9 days in (1) media, (2) media+BpV(pic) (200 nM), (3) media+CHIR99021 (100 nM), and (4) media+CHIR99021 (100 nM)+BpV(pic) (200 nM) were re-sorted for LSK Flk2^− cells, and fold expansion of LSK Flk2^− cells after 9 days culture in the indicated conditions was determined (FIG. 3I).
FACS analysis was performed on 9 day LSK Flk2^− cells cultured in media+BpV(pic) (200 nM)+CHIR99021 (100 nM) (FIG. 3J). Cells were pre-gated on live, lineage negative cells.

Assay [2] concerns LSK Flk2^− cells. Put plainly: 14-day ex vivo expansion of bone marrow MNCs in ST media with or without GSK3β inhibitor, FACS. In kind it is cell-based, mouse. The settings on record: 14-day culture of MNCs; average; FIG. 26B (250 nM CHIR99021).
Experimental: For the experiments set forth in this Example, a particular HSC expansion media was used. This HSC expansion media consists of the following ingredients: (1) StemSpan Media (Stem Cell Technologies; Cat. No. 09600) (StemSpan Media consists of Iscove's-modified Dulbecco's medium (IMDM) supplemented with 1% bovine serum albumin, 10 μg/ml recombinant human insulin, 200 μg/ml iron-saturated transferrin, 0.1 mM 2-mercaptoethanol and 2 mM glutamine.); (2)10 μg/ml Heparin (Sigma; Cat. No. H-3149); (3) 0.5× Penicillin/Streptomycin (Sigma; Cat. No. P4333); (4) 10 ng/ml recombinant mouse (rm) or recombinant human (rh) Stem Cell Factor (SCF) (Biovision; Cat. No. 4328-10 or 4327-10, respectively); (5) 20 ng/ml rm or rh Thrombopoietin (Tpo) (Cell Sciences, Inc; Cat. No. CRT401B or CRT400B, respectively). CHIR99021 (250 nM) (Stemgent, Inc; Cat. No. 04-0004) may be added to this HSC expansion media as indicated.
Bone marrow cells were harvested from C57Bl/6 (CD45.2) mice and made into a single cell suspension by gently drawing through a 22 g needle several times. Mobilized peripheral blood or bone marrow from human patients was harvested at the University of Kansas Medical Center (Kansas City, Mo. USA). […] Mononuclear cells were isolated from mouse bone marrow using Histopaque 1077 (Sigma; Cat. No. 10771) and human blood or bone marrow using Ficoll-Paque PLUS (Stem Cell Technologies; Cat. No. 07917) according to the manufacturers' instructions. Cells were washed and resuspended in HSC expansion media. Cells were counted and a fraction of mononuclear cells (MNCs) were stained for lineage markers using CD3, CD4, CD8, B220, IgM, Mac-1, Gr1, and Ter119 antibodies along with Kit, Sca-1, and Flk2 for mouse HSC analysis or CD34 and CD38 for human HSC analysis. 1×10^6 cells/0.1 ml were stained at 4° C. for 30 minutes using 0.05 μg of antibody for each lineage marker and 0.2 μg for remaining antibodies. […] Frequency of putative HSCs (lineage negative, Sca-1^+, Kit^+, Flk-1^− for mouse or CD34^+, CD38^− cells for human) was determined by analyzing >3×10^6 cells per sample independently in triplicate. […]
The test system of assay [3] is lethally irradiated (10 Gy) CD45.1^+ recipient mice. Put plainly: Transplantation of cultured sorted LSK Flk2^− cells into lethally irradiated recipients, donor engraftment. It counts as in vivo, mouse. The following applies: 28-day cultures, 1000 re-sorted LSK Flk2^− cells + 2×10^5 competitor cells; peripheral blood 4 weeks post-transplant.
Assay [4] relates to lethally irradiated recipients. The experiment in a line: Serial transplantation of cultured MNCs without rescue/competitor cells. It counts as in vivo, mouse. Here is the method:
FIGS. 27A-C show ex vivo expansion of normal, long-term repopulating HSC. MNCs containing a known quantity of LSK Flk2^− cells were cultured for 14 days with and without CHIR99021. The cultured progeny of MNCs containing a pre-culture dosage of 0.1, 0.3 or 1.0 LSK Flk2^− cells were transplanted into lethally irradiated recipients along with 1×10^5 rescue/competitor cells (n=10 for each of 6 groups). Peripheral blood was analyzed at 16 weeks post-transplant and competitive repopulating unit (CRU) frequency was determined using L-Calc software (Stem Cell Technologies, Inc.) based on Poisson statistics (Zhang, C. C. & Lodish, H. F. Murine hematopoietic stem cells change their surface phenotype during ex vivo expansion. Blood, Vol. 105, pages 4314-4320 (2005); Miller, C. L. & Eaves, C. J. Expansion in vitro of adult murine hematopoietic stem cells with transplantable lympho-myeloid reconstituting ability. Proceedings of the National Academy of Sciences of the United States of America, Vol. 94, pages 13648-13653 (1997)). […] Fresh MNCs containing 5 or 500 LSK Flk2^− cells, or the progeny of MNCs containing 5 LSK Flk2^− cells cultured for 14 days with and without CHIR99021, were transplanted into lethally irradiated recipients without rescue/competitor cells. At 16-17 weeks post-transplant, bone marrow isolated from 1° recipients was transplanted into 2° recipients and, at 16-17 weeks post-secondary transplant, from 2° into 3° recipients at a dosage of 1×10^6 cells per mouse. Peripheral blood was analyzed for percent donor repopulation at 16 weeks post-1°, 2°, and 3° transplant (upper panels) and percent mature donor-derived B, T and myeloid cells (lower panels).
For competitive repopulation assays, 1×10^5 bone marrow cells congenic with the host (CD45.1^+) were included per mouse. 100 μl of cultured cells or cells freshly isolated and quantified in the same manner were transplanted into lethally irradiated (10 Grays, single dose) Protein tyrosine phosphatase, receptor type, C (Ptprc or CD45.1) recipient mice through the tail vein using an insulin syringe (29 gauge). Mice were placed on Batril® water (Bayer Healthcare, LLC, Shawnee Mission, Kans.) 3 days prior to irradiation which continued for 2 weeks post-irradiation. Repopulation was measured every 4 weeks post-transplant by collection of peripheral blood, red blood cell lysis and staining of CD45.1 (recipient) vs. CD45.2 (donor) engraftment. […] Multi-lineage reconstitution was determined by CD3, B220 (for T and B lymphoid, respectively) and Gr1, Mac-1 (for myeloid) gating on donor (CD45.2^+) cells. […] Bone marrow cells were counted and transplanted as above at a dosage of 1×10^6 per mouse. […]

Consider `Cc1c[nH]c(-c2cnc(NCCNc3ccc(C#N)cn3)nc2-c2ccc(Cl)cc2Cl)n1` [CHIR99021], for which the “Expansion of LSK cells compared to control (photographs)” value in the assay on LSK Flk2^− cells [1] (17 and 23 days culture, 1 μM CHIR99021, 200 nM BpV(pic)) is given as “greater expansion of LSK cells”. For the same compound, the “Expansion of LSK Flk2^− cells compared to media without inhibitor” value in the assay on LSK Flk2^− cells [1] (28 days culture) was “significant expansion”. Further, the “Increase in total number of LSK Flk2^− cells” value with LSK Flk2^− cells [2] stood at 93 fold. The “Mice showing >1% engraftment” value in assay [3] was 4/8. The “Dose of fresh, unexpanded cells giving equivalent long-term repopulation” value in assay [4] (16 weeks post-secondary transplantation, 5 versus 500 putative HSCs) was determined as 100 fold. In addition, the “Repopulation of tertiary recipients” value in assay [4] (16 weeks post-tertiary transplant, versus 100× uncultured cells) is reported as “equivalent levels of repopulation with no statistical difference between the two groups”. Further, the “Survival of tertiary recipients” value in assay [4] (Kaplan-Meier, FIG. 27C) is on record as “survival rates similar to tertiary recipients of 100× uncultured cells”. For the same compound, in assay [4] (secondary lethally-irradiated recipients, 1×10^6 bone marrow cells), the “Donor reconstitution at 16 weeks post-secondary transplant” value is reported as 90.6±4.8%.
